In the assay the target is T1, ligand binding domain of human ROR gamma (Homo sapiens, UniProt P51449).
T1 construct: NM_001001523; expressed in transfected cells; host or cells: HEK293T
T1 sequence (P51449 247-497 isoform P51449-2): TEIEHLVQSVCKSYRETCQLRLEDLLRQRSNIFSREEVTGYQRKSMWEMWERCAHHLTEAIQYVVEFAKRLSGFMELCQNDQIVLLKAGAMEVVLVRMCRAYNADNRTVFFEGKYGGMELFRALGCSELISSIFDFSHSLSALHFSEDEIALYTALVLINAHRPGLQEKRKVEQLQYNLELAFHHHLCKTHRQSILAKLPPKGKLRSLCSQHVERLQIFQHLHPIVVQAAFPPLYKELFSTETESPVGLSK
Kind of assay: ROR gamma reporter gene assay (GAL4-RORγ LBD luciferase, Dual-Glo). The settings on record: HEK293T cells transfected with pM-ROR gamma, 8 concentrations 3.5 nM to 10.5 μM, 24 h incubation; read-out: result (pIC50, inhibition of RORγ transcriptional activity) (converted). It is filed as cell-based. The method, boiled down: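 HEK293T cells were co-transfected with GAL4 DBD fused to human RORγ LBD (aa 247-497), a 5×UAS firefly luciferase reporter and CMV-driven renilla luciferase, in medium with 10% charcoal-stripped FBS.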
For orientation: A reporter such as luciferase makes a cellular process visible.

These results are taken from patent US9365522B2, “Pyrazole amide derivative” (AMGEN INC., priority 2015, dated 2016).

Regarding `Cc1cc(Cl)c(C(=O)CN(C(=O)c2cnn([C@H]3CC[C@](C)(C(=O)O)CC3)c2C)[C@H]2C[C@@H]3[C@H](C2)C3(C)C)c(Cl)c1` [Example 365, trans-4-(4-((2-(2,6-dichloro-4-methylphenyl)-2-oxoethyl)((1R,3r,5S)-6,6-dimethylbicyclo[3.1.0]hexan-3-yl)carbamoyl)-5-methyl-1H-pyrazol-1-yl)-1-methylcyclohexanecarboxylic acid], the IC50 is 30900 pM.
As to `Cc1cc(Cl)c(C(=O)CN(C(=O)c2cnn([C@H]3CC[C@](C)(C(=O)O)CC3)c2Cl)[C@H]2C[C@@H]3[C@H](C2)C3(C)C)c(Cl)c1` [Example 366, trans-4-(5-chloro-4-((2-(2,6-dichloro-4-methylphenyl)-2-oxoethyl)((1R,3r,5S)-6,6-dimethylbicyclo[3.1.0]hexan-3-yl)carbamoyl)-1H-pyrazol-1-yl)-1-methylcyclohexanecarboxylic acid], the IC50 was 15100 pM.
Consider `CC1(C)[C@@H]2C[C@H](N(CC(=O)c3c(Cl)cncc3Cl)C(=O)c3cnn([C@H]4CC[C@](C)(C(=O)O)CC4)c3Cl)C[C@@H]21` [Example 367, trans-4-(5-chloro-4-((2-(3,5-dichloropyridin-4-yl)-2-oxoethyl)((1R,3r,5S)-6,6-dimethylbicyclo[3.1.0]hexan-3-yl)carbamoyl)-1H-pyrazol-1-yl)-1-methylcyclohexanecarboxylic acid], for which the IC50 is 30200 pM.
In the case of `CC1(C)[C@@H]2C[C@H](N(C[C@H](O)c3ccccc3Cl)C(=O)c3cnn([C@H]4CC[C@](C)(C(=O)O)CC4)c3C(F)(F)F)C[C@@H]21` [Example 368, trans-4-(4-((2-(2-chlorophenyl)-2-hydroxyethyl)((1R,3r,5S)-6,6-dimethylbicyclo[3.1.0]hexan-3-yl)carbamoyl)-5-(trifluoromethyl)-1H-pyrazol-1-yl)-1-methylcyclohexanecarboxylic acid], the IC50 is 191000 pM.
In the case of `CC1(C)[C@@H]2C[C@H](N(C[C@@H](O)c3ccccc3Cl)C(=O)c3cnn([C@H]4CC[C@](C)(C(=O)O)CC4)c3C(F)(F)F)C[C@@H]21` [Example 369, trans-4-(4-((2-(2-chlorophenyl)-2-hydroxyethyl)((1R,3r,5S)-6,6-dimethylbicyclo[3.1.0]hexan-3-yl)carbamoyl)-5-(trifluoromethyl)-1H-pyrazol-yl)-1-methylcyclohexanecarboxylic acid], the IC50 was 1.23e+06 pM.
The same measure for `COc1ccccc1[C@@H](O)CN(C(=O)c1cnn([C@H]2CC[C@](C)(C(=O)O)CC2)c1C(F)(F)F)[C@H]1C[C@@H]2[C@H](C1)C2(C)C` [Example 370, trans-4-(4-(((1R,3r,5S)-6,6-dimethylbicyclo[3.1.0]hexan-3-yl)(2-hydroxy-2-(2-methoxyphenyl)ethyl)carbamoyl)-5-(trifluoromethyl)-1H-pyrazoH-yl)-1-methylcyclohexanecarboxylic acid]: 537000 pM.
`COc1ccccc1[C@H](O)CN(C(=O)c1cnn([C@H]2CC[C@](C)(C(=O)O)CC2)c1C(F)(F)F)[C@H]1C[C@@H]2[C@H](C1)C2(C)C` [Example 371, trans-4-(4-(((1R,3r,5S)-6,6-dimethylbicyclo[3.1.0]hexan-3-yl)(2-hydroxy-2-(2-methoxyphenyl)ethyl)carbamoyl)-5-(trifluoromethyl)-1H-pyrazol-1-yl)-1-methylcyclohexanecarboxylic acid]: the IC50 is 5.37e+06 pM.
The same measure for `CC1(C)[C@@H]2C[C@H](N(C[C@H](O)c3ccccc3C(F)(F)F)C(=O)c3cnn([C@H]4CC[C@](C)(C(=O)O)CC4)c3C(F)(F)F)C[C@@H]21` [Example 372, trans-4-(4-(((1R,3r,5S)-6,6-dimethylbicyclo[3.1.0]hexan-3-yl)(2-hydroxy-2-(2-(trifluoromethyl)phenyl)ethyl)carbamoyl)-5-(trifluoromethyl)-1H-pyrazol-1-yl)-1-methylcyclohexanecarboxylic acid]: 331000 pM; for `CC1(C)[C@@H]2C[C@H](N(C[C@@H](O)c3ccccc3C(F)(F)F)C(=O)c3cnn([C@H]4CC[C@](C)(C(=O)O)CC4)c3C(F)(F)F)C[C@@H]21` [Example 373, trans-4-(4-(((1R,3r,5S)-6,6-dimethylbicyclo[3.1.0]hexan-3-yl)(2-hydroxy-2-(2-(trifluoromethyl)phenyl)ethyl)carbamoyl)-5-(trifluoromethyl)-1H-pyrazol-1-yl)-1-methylcyclohexanecarboxylic acid]: 3.39e+06 pM.
The same measure for `COc1cccc(Cl)c1[C@@H](O)CN(C(=O)c1cnn([C@H]2CC[C@](C)(C(=O)O)CC2)c1Cl)[C@H]1C[C@@H]2[C@H](C1)C2(C)C` [Example 374, trans-4-(5-chloro-4-((2-(2-chloro-6-methoxyphenyl)-2-hydroxyethyl)((1R,3r,5S)-6,6-dimethylbicydo[3.1.0]hexan-3-yl)carbamoyl)-1H-pyrazol-1-yl)-1-methylcyclohexanecarboxylic acid]: 661000 pM.
In the case of `COc1cccc(Cl)c1[C@H](O)CN(C(=O)c1cnn([C@H]2CC[C@](C)(C(=O)O)CC2)c1Cl)[C@H]1C[C@@H]2[C@H](C1)C2(C)C` [Example 375, trans-4-(5-chloro-4-((2-(2-chloro-6-methoxyphenyl)-2-hydroxyethyl)((1R,3r,5S)-6,6-dimethylbicydo[3.1.0]hexan-3-yl)carbamoyl)-1H-pyrazol-1-yl)-1-methylcyclohexanecarboxylic acid], the IC50 was 107000 pM.
The same measure for `CC1(C)[C@@H]2C[C@H](N(CCc3n[nH]c4cccc(Cl)c34)C(=O)c3cnn([C@H]4CC[C@](C)(C(=O)O)CC4)c3C(F)(F)F)C[C@@H]21` [Example 376, trans-4-(4-((2-(4-chloro-1H -indazol-3-yl)ethyl)((1R,3r,5S)-6,6-dimethylbicyclo[3.1.0]hexan-3-yl)carbamoyl)-5-(trifluoromethyl)-1H-pyrazol-1-yl)-1-methylcyclohexanecarboxylic acid]: 309000 pM; for `CC(CN(C(=O)c1cnn([C@H]2CC[C@](C)(C(=O)O)CC2)c1C(F)(F)F)[C@H]1C[C@@H]2[C@H](C1)C2(C)C)c1c[nH]c2cccc(Cl)c12` (stereo partly drawn) [Example 377, trans-4-(4-((2-(4-chloro-1H-indol-3-yl)propyl)((1R,3r,5S)-6,6-dimethylbicyclo[3.1.0]hexan-3-yl)carbamoyl)-5-(trifluoromethyl)-1H-pyrazol-1-yl)-1-methylcyclohexanecarboxylic acid]: 437000 pM.
For `CC1(CN(CC(=O)c2c(Cl)cncc2Cl)C(=O)c2cnn([C@H]3CC[C@](C)(C(=O)O)CC3)c2Cl)CC1` [Example 378, trans-4-(5-chloro-4-((2-(3,5-dichloropyridin-4-yl)-2-oxoethyl)-((1-methylcyclopropyl)methyl)carbamoyl)pyrazol-1-yl)-1-methylcyclohexane-1-carboxylic acid], the IC50 was 74100 pM.
In the case of `Cc1cncc(Cl)c1C(=O)CN(CC(C)(C)C)C(=O)c1cnn([C@H]2CC[C@](C)(C(=O)O)CC2)c1C(F)(F)F` [Example 379, trans-4-(4-((2-(3-chloro-5-methylpyridin-4-yl)-2-oxoethyl)-(2,2-dimethylpropyl)carbamoyl)-5-(trifluoromethyl)pyrazol-1-yl)-1-methylcyclohexane-1-carboxylic acid], the IC50 is 79400 pM.
As for `CC1(C)[C@@H]2C[C@H](N(CCc3c[nH]c4cncc(Cl)c34)C(=O)c3cnn([C@H]4CC[C@](C)(C(=O)O)CC4)c3C(F)(F)F)C[C@@H]21` [Example 380, trans-4-(4-((2-(4-chloro-1H -pyrrolo(2,3-c)pyridin-3-yl)ethyl)((1R,3r,5S)-6,6-dimethylbicyclo[3.1.0]hexan-3-yl)carbamoyl)-5-(trifluoromethyl)-1H-pyrazol-1-yl)-1-methylcyclohexanecarboxylic acid], the IC50 is 83200 pM.
For `CC1(C)CC(CN(CC(=O)c2c(Cl)cncc2Cl)C(=O)c2cnn([C@H]3CC[C@](C)(C(=O)O)CC3)c2Cl)C1` [Example 381, trans-4-(5-chloro-4-((2-(3,5-dichloropyridin-4-yl)-2-oxoethyl)-((3,3-dimethylcyclobutyl)methyl)carbamoyl)pyrazol-1-yl)-1-methylcyclohexane-1-carboxylic acid], the IC50 was 100000 pM.
As for `Cc1c(C(=O)N(CC(=O)c2c(Cl)cncc2Cl)CC2CC(C)(C)C2)cnn1[C@H]1CC[C@](C)(C(=O)O)CC1` [Example 382, trans-4-(4-((2-(3,5-dichloropyridin-4-yl)-2-oxoethyl)-((3,3-dimethylcyclobutyl)methyl)carbamoyl)-5-methylpyrazol-1-yl)-1-methylcyclohexane-1-carboxylic acid], the figure is 257000 pM; as for `CC1(C)[C@@H]2C[C@H](N(C[C@H](O)c3c(F)cncc3Cl)C(=O)c3cnn([C@H]4CC[C@](C)(C(=O)O)CC4)c3C(F)(F)F)C[C@@H]21` [Example 383, trans-4-(4-((2-(3-chloro-5-fluoropyridin-4-yl)-2-hydroxyethyl)((1R,3r,5S)-6,6-dimethylbicyclo[3.1.0]hexan-3-yl)carbamoyl)-5-(trifluoromethyl)-1H-pyrazol-1-yl)-1-methylcyclohexanecarboxylic acid], 39800 pM.
